Results reported in publication PMC2362861, “Potent interaction of flavopiridol with MRP1” (British Journal of Cancer, 1999).
Read-outs that look alike come from different tables or passages of the source.

Columns and labels:
GLC4/ADR = assay: Growth inhibition assay, GLC4/ADR; assay type: cell-based, human; details: for IC50: Homo sapiens, GLC-4/ADR
[1] = during continuous infusion, ref Senderowicz et al, 1998, Stinson et al; cited from earlier work
GLC4 cells = assay: Steady-state cellular [3H]daunorubicin accumulation in GLC4 cells; assay type: cell-based, human; details: GLC4; (iso)flavonoid 50 µM (μM); 0.5 M DNR, 75 min
S1(MRP) = assay: Growth inhibition assay, S1(MRP); assay type: cell-based, human
MRP1 ATPase activity = biological target: T1, MRP1 ATPase activity (Homo sapiens, UniProt P33527); assay: ATPase activity of GLC4/ADR plasma membranes (colourimetric inorganic phosphate); assay type: biochemical
T1 construct: plasma membrane vesicles prepared from the MRP1 overexpressing cell line GLC4/ADR; endogenous in cells; host or cells: GLC4/ADR (adriamycin-selected human small-cell lung cancer subline); plasma membrane vesicles
From the text: One form of cellular resistance, directed against a wide spectrum of natural agents, is referred to as multidrug resistance (MDR). […] The ATP-dependent transport of anticancer drugs out of tumour cells that express MDR proteins may at least theoretically lead to impaired treatment outcome of patients. […] 1-Chloro-2,4-dinitrobenzene (CDNB) was from Sigma (St Louis, MO, USA). […] The isoflavonoid genis- tein was from ICN Biomedicals (Zoetermeer, The Netherlands). […] The (iso)flavonoids were dissolved as a stock solution of 40 mM in dimethyl sulphoxide (DMSO; Across Chimica, Belgium) and stored at -20C. Before experiments, 1:1 dilutions were made in ethanol, followed by a dilution in ethanol/water (1: 3; v/v) to the appropriate concentrations. The maximal concentration of DMSO and ethanol, which was also added to the controls, was 0.5% (v/v). Membrane filters OE67 were from Schleicher and Schuell (Dassel, Germany). Doxorubicin hydrochloride was from Laboratoire Roger Bellon (France). […] S1(MRP1) cells were cultured in the presence of G418 until 2-10 days before experiments. […] Cells were harvested by centrifugation (275 g, 5 min) and washed twice in phosphate-buffered saline. Subsequently, the cells were incubated in 100 mM potassium chloride (KCl), 5 mM magnesium chloride (MgCl2 ), 1 mM phenylmethylsulphonyl fluoride and 50 mM HEPES-KOH (pH 7.4) for 1 h at 0C, in order to allow the cells to swell. Then the cells were ultrasonicated at 20% of the maximum power of an MSE sonicator (Soniprep 150) for three bursts of 15 s. The suspension was centrifuged at 1500 g for 10 min. […] After centrifugation at 100 000 g for 60 min the interface was removed and washed in 100 mM KC1-50 mM HEPES-5 mM MgCl2 buffer (pH 7.4). The final membrane preparations were stored at -80C at a protein concentration of ~ 4 mg ml-1 . […] Vesicles were incubated in KCl-HEPES buffer (pH 7.4) at 37C (protein concentration ~ 0.25 mg ml-1 ), in the presence of 10 mM MgCl2 with or without 1 mM ATP and tritium-labelled DNP-SG. The reaction was stopped by adding ice-cold KCl-HEPES buffer. After rapid filtration, the filters were washed twice with KCl-HEPES buffer. The radioactivity on the filters was measured by liquid scintillation counting. […] Plasma membranes were incubated for 1 h in KCl-HEPES buffer (pH 7.4) at 37C, in the presence of 1 mM EGTA, 1 mM sodium azide and 0.1 mM ouabain, with or without 1 mM ATP. […] Plasma membranes from GLC4 cells (black bars) and GLC4 /ADR cells (white bars) were incubated with 10 nM DNP-SG in the absence or presence of the MIB6 antibody (MIB6) (10 g ml-1 ) or an MRP1 control antibody (10 g ml-1 ). […] In short, anti-MRP1 antibodies were tested for their capacity to inhibit DNP-SG transport into GLC4 /ADR inside-out plasma membrane vesicles.

S1(1.1) = assay: Growth inhibition assay, S1(1.1); assay type: cell-based; details: Homo sapiens, 72 h, read-out: IC50 value
GLC4/ADR cells = assay: Steady-state cellular [3H]daunorubicin accumulation in GLC4/ADR cells; assay type: cell-based, human
GLC4 = assay: Growth inhibition assay, GLC4; assay type: cell-based, human; details: for IC50: Homo sapiens
cyclin-dependent kinases = tested on: cyclin-dependent kinases; set-up: method as in Losiewicz et al, 1996; details: ref Losiewicz et al, 1996; cited from earlier work
SW1573 = assay: Growth inhibition assay, SW1573; assay type: cell-based; details: Homo sapiens, SW1573, 72 h, read-out: IC50 value

T1 sequence (P33527 whole entry): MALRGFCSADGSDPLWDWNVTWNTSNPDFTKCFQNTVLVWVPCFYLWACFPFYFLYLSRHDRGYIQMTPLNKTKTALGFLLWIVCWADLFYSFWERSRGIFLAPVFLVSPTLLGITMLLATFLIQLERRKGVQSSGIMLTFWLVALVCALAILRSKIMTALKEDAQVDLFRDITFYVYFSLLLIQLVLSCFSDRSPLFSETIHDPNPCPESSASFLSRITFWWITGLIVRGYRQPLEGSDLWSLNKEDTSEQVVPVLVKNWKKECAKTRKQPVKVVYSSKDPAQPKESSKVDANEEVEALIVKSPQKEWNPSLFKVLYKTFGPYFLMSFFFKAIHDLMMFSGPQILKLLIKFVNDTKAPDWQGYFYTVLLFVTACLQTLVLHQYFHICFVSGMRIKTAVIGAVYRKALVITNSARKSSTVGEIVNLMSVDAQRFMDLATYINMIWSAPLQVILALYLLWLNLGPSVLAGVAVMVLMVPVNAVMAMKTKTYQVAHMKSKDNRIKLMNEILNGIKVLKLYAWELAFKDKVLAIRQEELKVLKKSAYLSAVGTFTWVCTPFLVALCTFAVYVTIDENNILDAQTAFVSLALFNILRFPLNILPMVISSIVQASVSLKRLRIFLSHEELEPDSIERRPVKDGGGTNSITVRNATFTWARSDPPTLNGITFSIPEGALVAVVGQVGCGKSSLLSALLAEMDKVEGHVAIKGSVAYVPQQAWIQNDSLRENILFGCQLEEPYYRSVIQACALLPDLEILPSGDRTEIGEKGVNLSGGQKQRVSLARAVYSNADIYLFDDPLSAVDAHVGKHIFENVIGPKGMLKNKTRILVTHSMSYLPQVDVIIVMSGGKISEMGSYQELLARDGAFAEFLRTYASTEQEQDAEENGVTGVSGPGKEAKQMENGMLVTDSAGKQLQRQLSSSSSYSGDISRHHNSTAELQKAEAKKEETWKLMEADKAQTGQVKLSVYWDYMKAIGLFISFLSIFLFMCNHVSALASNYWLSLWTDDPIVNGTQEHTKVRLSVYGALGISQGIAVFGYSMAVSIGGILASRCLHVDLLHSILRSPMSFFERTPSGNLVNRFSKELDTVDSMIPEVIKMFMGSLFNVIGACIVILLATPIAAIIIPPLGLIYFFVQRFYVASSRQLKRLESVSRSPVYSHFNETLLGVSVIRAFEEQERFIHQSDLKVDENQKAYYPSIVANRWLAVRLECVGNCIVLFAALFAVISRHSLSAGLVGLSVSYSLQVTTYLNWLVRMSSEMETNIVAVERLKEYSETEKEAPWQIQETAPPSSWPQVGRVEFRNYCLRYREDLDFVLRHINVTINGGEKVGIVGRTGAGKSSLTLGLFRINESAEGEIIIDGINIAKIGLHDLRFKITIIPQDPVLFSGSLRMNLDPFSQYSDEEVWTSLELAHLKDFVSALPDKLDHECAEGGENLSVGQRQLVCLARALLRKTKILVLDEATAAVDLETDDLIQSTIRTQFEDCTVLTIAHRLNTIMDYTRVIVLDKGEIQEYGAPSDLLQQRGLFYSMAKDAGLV

CN1CC[C@H](c2c(O)cc(O)c3c(=O)cc(-c4ccccc4Cl)oc23)[C@H](O)C1 [Flavopiridol, (-)cis-5,7-dihydroxy-2-(2-chlorophenyl)-8[4-(3-hydroxy-1-methyl)-piperidinyl]-4H-benzopyran-4-one]
Resistance compared to GLC4 (GLC4/ADR; GLC4/ADR vs GLC4): 2.8 times | IC50 (GLC4/ADR; 72 h, read-out: IC50 value): 128 nM | IC50 (GLC4/ADR; read-out: IC50 value): > 1000 nM | IC50 (GLC4/ADR; read-out: IC50 values): > 1000 nM | Steady-state plasma concentrations in humans [1]: 200 to 300 nM | Accumulation of daunorubicin, mean percentages of control (set at 100%) (GLC4 cells): 104% | IC50 (S1(MRP); Homo sapiens, S1(MRP), 72 h, read-out: IC50 value): 130 nM | Resistance compared to SW1573 (S1(MRP); S1(MRP) vs SW1573): 1.5 times | Concentrations at which ATPase activity of GLC4/ADR membranes was significantly induced (MRP1 ATPase activity; GLC4/ADR membranes, lowest effective concentration and higher): ≥ 1 µM | Effect of GSH on (iso)flavonoid-induced MRP1 ATPase activity (MRP1 ATPase activity; GSH 0.5 mM or 5 mM, data not shown): no synergistic stimulation | IC50 (S1(1.1)): 93 nM | Effect on accumulation of DNR in GLC4/ADR cells (GLC4/ADR cells; 50 µM (μM)): increased the accumulation of DNR | Lowest concentration tested, giving a significant increase of DNR accumulation (GLC4/ADR cells; GLC4/ADR): 100 nM | Difference of DNR accumulation from control (P < 0.05) (GLC4/ADR cells; GLC4/ADR, all tested flavopiridol concentrations (0.1, 1, 5), Figure 6): gave a significant difference | Concentrations at which daunorubicin accumulation is affected (GLC4/ADR cells; GLC4/ADR, only tested compound active in this range): below 1 μM | IC50 (GLC4; GLC4, 72 h, read-out: IC50 value): 45 nM | IC50 (GLC4; GLC4, read-out: IC50 value): > 1000 nM | IC50 (GLC4; GLC4, read-out: IC50 values): > 1000 nM | Growth inhibitory potency compared to genistein and kaempferol (GLC4; Table 3, all cell lines): about 100 fold | Potency as inhibitor of cyclin-dependent kinases compared to genistein and quercetin (cyclin-dependent kinases): 250 fold | IC50 (SW1573): 85 nM
